Measured values as given in US20240158446A1, “CYCLIC COMPOUND HAVING SELECTIVE INHIBITORY ACTION ON KRAS OVER HRAS AND NRAS” (CHUGAI SEIYAKU KABUSHIKI KAISHA, priority 2021, published 2024).

Experiments:
[1] = target: GDP-bound HRAS wild-type protein (Homo sapiens, UniProt P01112); experiment: Binding to HRAS by surface plasmon resonance (SPR), Single Cycle Kinetics; settings: ratio of KD for GDP-bound HRAS wild-type protein to KD for KRAS, SPR
[2] = target: GDP-bound NRAS wild-type protein (Homo sapiens, UniProt P01111); experiment: Binding to NRAS by surface plasmon resonance (SPR), Single Cycle Kinetics; settings: ratio of KD for GDP-bound NRAS wild-type protein to KD for KRAS, SPR
Sequence of GDP-bound NRAS wild-type protein (P01111 whole entry): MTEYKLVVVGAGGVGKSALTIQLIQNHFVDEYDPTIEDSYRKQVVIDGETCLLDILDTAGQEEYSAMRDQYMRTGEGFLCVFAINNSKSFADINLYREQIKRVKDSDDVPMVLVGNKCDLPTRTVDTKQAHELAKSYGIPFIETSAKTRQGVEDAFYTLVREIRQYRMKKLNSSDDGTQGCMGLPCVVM

[3] = tested on: human lung cancer strain NCI-H441; experiment: cells; settings: NCI-H441, 96 h, read-out: NCI-H441 IC50 (nM), NCI-H441 cell proliferation, 4 days, CellTiter-Glo;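 also: cell proliferation inhibition after four days measured by CellTiter-Glo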
[4] = target: GDP-bound KRAS wild-type protein (Homo sapiens, UniProt P01116); experiment: Binding to KRAS by surface plasmon resonance (SPR), Single Cycle Kinetics; settings: SPR, Single Cycle Kinetics, GDP-bound KRAS wild-type protein; read-out: KRAS KD
Sequence of GDP-bound KRAS wild-type protein (P01116 whole entry): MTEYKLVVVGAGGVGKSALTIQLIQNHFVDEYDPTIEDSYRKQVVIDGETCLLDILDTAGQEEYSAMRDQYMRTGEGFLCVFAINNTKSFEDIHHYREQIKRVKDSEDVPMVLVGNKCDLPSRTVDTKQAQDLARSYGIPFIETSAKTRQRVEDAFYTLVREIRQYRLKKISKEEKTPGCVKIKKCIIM

Sequence of GDP-bound HRAS wild-type protein (P01112 whole entry): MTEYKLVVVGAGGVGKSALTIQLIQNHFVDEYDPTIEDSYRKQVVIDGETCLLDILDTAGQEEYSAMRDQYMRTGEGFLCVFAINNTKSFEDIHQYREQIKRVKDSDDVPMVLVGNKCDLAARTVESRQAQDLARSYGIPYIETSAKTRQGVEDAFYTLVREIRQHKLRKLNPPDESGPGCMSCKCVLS

Row | IC50 [3] [nM] | Kd [4] [nM] | SMILES | HRAS/KRAS (KD ratio) [1] | NRAS/KRAS (KD ratio) [2]
1 | 6.6 | 0.14 | CCO[C@@H]1C[C@H]2C(=O)NC3(CCC3)C(=O)N(C)[C@@H](C3CCCC3)C(=O)N(C)[C@H](C(=O)N(C)CC)CC(=O)N(C)[C@@H](C(C)C)C(=O)N[C@@H]([C@@H](C)CC)C(=O)N(C)CC(=O)N(C)[C@H]3C/C=C\CCN(C3=O)[C@@H](Cc3ccc(C(F)(F)F)cc3)C(=O)N(C)CC(=O)N[C@@H](CCc3cc(F)c(C(F)(F)F)c(F)c3)C(=O)N2C1 [PP1990] | A (a compound having 10 or more and less than 20 is denoted as A) | A (a compound having 10 or more and less than 20 is denoted as A)
2 | 10.8 | 0.15 | CCCN(C)C(=O)[C@@H]1CC(=O)N(C)[C@@H](COCC)C(=O)N[C@@H]([C@@H](C)CC)C(=O)N(C)CC(=O)N(C)[C@H]2C/C=C\CCN(C2=O)[C@@H](Cc2ccc(C(F)(F)F)cc2)C(=O)N(C)CC(=O)N[C@@H](CCc2ccc(C(F)(F)F)c(OC)c2)C(=O)N2C[C@@H](C)C[C@H]2C(=O)NC2(CC(C)(C)C2)C(=O)N(C)[C@@H](C2CCCC2)C(=O)N1C [PP1991] | A (a compound having 10 or more and less than 20 is denoted as A) | A (a compound having 10 or more and less than 20 is denoted as A)
3 | 17.7 | 0.21 | CCCN(C)C(=O)[C@@H]1CC(=O)N(C)[C@@H](C(C)C)C(=O)N[C@@H]([C@@H](C)CC)C(=O)N(C)CC(=O)N(C)[C@H]2C/C=C\CCN(C2=O)[C@@H](Cc2ccc(C(F)(F)F)cc2)C(=O)N(C)CC(=O)N[C@@H](CCc2cc(F)c(C(F)(F)F)c(F)c2)C(=O)N2C[C@H](OCC)C[C@H]2C(=O)NC2(CCC2)C(=O)N(C)[C@@H](C2CCCC2)C(=O)N1C [PP1992] | B (a compound having 3 or more and less than 10 is denoted as B) | AA (a compound having 20 or more is denoted as AA)
4 | 13.3 | 0.12 | CCOC[C@H]1C(=O)N[C@@H]([C@@H](C)CC)C(=O)N(C)CC(=O)N(C)[C@H]2C/C=C\CCN(C2=O)[C@@H](Cc2ccc(C(F)(F)F)cc2)C(=O)N(C)CC(=O)N[C@@H](CCc2ccc(C(F)(F)F)c(OC)c2)C(=O)N2C[C@@H](C)C[C@H]2C(=O)NC2(CC(C)(C)C2)C(=O)N(C)[C@@H](C2CCCC2)C(=O)N(C)[C@H](C(=O)N(C)CC)CC(=O)N1C [PP1993] | A (a compound having 10 or more and less than 20 is denoted as A) | A (a compound having 10 or more and less than 20 is denoted as A)
5 | 22.4 | 0.1 | CCCN(C)C(=O)[C@@H]1CC(=O)N(C)[C@@H](C2CC2)C(=O)N[C@@H]([C@@H](C)CC)C(=O)N(C)CC(=O)N(C)[C@H]2C/C=C\CCN(C2=O)[C@@H](Cc2ccc(C(F)(F)F)cc2)C(=O)N(C)CC(=O)N[C@@H](CCc2cc(F)c(C(F)(F)F)c(F)c2)C(=O)N2C[C@H](OCC)C[C@H]2C(=O)NC2(CCC2)C(=O)N(C)[C@@H](C2CCCC2)C(=O)N1C [PP1994] | A (a compound having 10 or more and less than 20 is denoted as A) | AA (a compound having 20 or more is denoted as AA)
6 | 17.8 | 0.21 | CCCOC[C@H]1C(=O)N[C@@H]([C@@H](C)CC)C(=O)N(C)CC(=O)N(C)[C@H]2C/C=C\CCN(C2=O)[C@@H](Cc2ccc(C(F)(F)F)cc2)C(=O)N(C)CC(=O)N[C@@H](CCc2ccc(C(F)(F)F)c(OC)c2)C(=O)N2C[C@@H](C)C[C@H]2C(=O)NC2(CC(C)(C)C2)C(=O)N(C)[C@@H](C2CCCC2)C(=O)N(C)[C@H](C(=O)N(C)CC)CC(=O)N1C [PP1995] | B (a compound having 3 or more and less than 10 is denoted as B) | A (a compound having 10 or more and less than 20 is denoted as A)
7 | 15.5 | 0.12 | CCO[C@@H]1C[C@H]2C(=O)NC3(CCC3)C(=O)N(C)[C@@H](C3CCCC3)C(=O)N(C)[C@H](C(=O)N(C)CC)CC(=O)N(C)[C@@H](C3CCC3)C(=O)N[C@@H]([C@@H](C)CC)C(=O)N(C)CC(=O)N(C)[C@H]3C/C=C\CCN(C3=O)[C@@H](Cc3ccc(C(F)(F)F)cc3)C(=O)N(C)CC(=O)N[C@@H](CCc3cc(F)c(C(F)(F)F)c(F)c3)C(=O)N2C1 [PP1996] | B (a compound having 3 or more and less than 10 is denoted as B) | A (a compound having 10 or more and less than 20 is denoted as A)
8 | 26.6 | 0.13 | CC[C@H](C)[C@@H]1NC(=O)[C@H](CCOC)N(C)C(=O)C[C@@H](C(=O)N(C)CC)N(C)C(=O)[C@H](C2CCCC2)N(C)C(=O)C2(CC(C)(C)C2)NC(=O)[C@@H]2C[C@H](C)CN2C(=O)[C@H](CCc2ccc(C(F)(F)F)c(OC)c2)NC(=O)CN(C)C(=O)[C@H](Cc2ccc(C(F)(F)F)cc2)N2CC/C=C\C[C@@H](C2=O)N(C)C(=O)CN(C)C1=O [PP1999] | B (a compound having 3 or more and less than 10 is denoted as B) | A (a compound having 10 or more and less than 20 is denoted as A)
9 | 18.1 | 0.11 | CCCN(C)C(=O)[C@@H]1CC(=O)N(C)[C@@H](CCOC)C(=O)N[C@@H]([C@@H](C)CC)C(=O)N(C)CC(=O)N(C)[C@H]2C/C=C\CCN(C2=O)[C@@H](Cc2ccc(C(F)(F)F)cc2)C(=O)N(C)CC(=O)N[C@@H](CCc2ccc(C(F)(F)F)c(OC)c2)C(=O)N2C[C@@H](C)C[C@H]2C(=O)NC2(CC(C)(C)C2)C(=O)N(C)[C@@H](C2CCCC2)C(=O)N1C [PP2001] | A (a compound having 10 or more and less than 20 is denoted as A) | A (a compound having 10 or more and less than 20 is denoted as A)
10 | 11.3 | 0.34 | CC[C@H](C)[C@@H]1NC(=O)[C@H](C(C)C)N(C)C(=O)C[C@@H](C(=O)N(C)CC)N(C)C(=O)[C@H](C2CCCC2)N(C)C(=O)C2(CC(C)(C)C2)NC(=O)[C@@H]2C[C@H](C)CN2C(=O)[C@H](CCc2ccc(C(F)(F)F)c(OC)c2)NC(=O)CN(C)C(=O)[C@H](Cc2ccc(C(F)(F)F)cc2)N2CC/C=C\C[C@@H](C2=O)N(C)C(=O)CN(C)C1=O [PP2003] | B (a compound having 3 or more and less than 10 is denoted as B) | A (a compound having 10 or more and less than 20 is denoted as A)
11 | 10.7 | 0.13 | CC[C@H](C)[C@@H]1NC(=O)[C@H](C(C)C)N(C)C(=O)C[C@@H](C(=O)N(C)C)N(C)C(=O)[C@H](C2CCCC2)N(C)C(=O)C2(CC(C)(C)C2)NC(=O)[C@@H]2C[C@H](C)CN2C(=O)[C@H](CCc2ccc(C(F)(F)F)c(OC)c2)NC(=O)CN(C)C(=O)[C@H](Cc2ccc(C(F)(F)F)cc2)N2CC/C=C\C[C@@H](C2=O)N(C)C(=O)CN(C)C1=O [PP2005] | A (a compound having 10 or more and less than 20 is denoted as A) | A (a compound having 10 or more and less than 20 is denoted as A)
12 | 14.9 | 0.14 | CC[C@H](C)[C@@H]1NC(=O)[C@H](C2CC2)N(C)C(=O)C[C@@H](C(=O)N(C)CC)N(C)C(=O)[C@H](C2CCCC2)N(C)C(=O)C2(CC(C)(C)C2)NC(=O)[C@@H]2C[C@H](C)CN2C(=O)[C@H](CCc2ccc(C(F)(F)F)c(OC)c2)NC(=O)CN(C)C(=O)[C@H](Cc2ccc(C(F)(F)F)cc2)N2CC/C=C\C[C@@H](C2=O)N(C)C(=O)CN(C)C1=O [PP2007] | B (a compound having 3 or more and less than 10 is denoted as B) | AA (a compound having 20 or more is denoted as AA)
13 | 19.7 | 0.19 | CC[C@H](C)[C@@H]1NC(=O)[C@H](C2CCC2)N(C)C(=O)C[C@@H](C(=O)N(C)CC)N(C)C(=O)[C@H](C2CCCC2)N(C)C(=O)C2(CC(C)(C)C2)NC(=O)[C@@H]2C[C@H](C)CN2C(=O)[C@H](CCc2ccc(C(F)(F)F)c(OC)c2)NC(=O)CN(C)C(=O)[C@H](Cc2ccc(C(F)(F)F)cc2)N2CC/C=C\C[C@@H](C2=O)N(C)C(=O)CN(C)C1=O [PP2009] | A (a compound having 10 or more and less than 20 is denoted as A) | A (a compound having 10 or more and less than 20 is denoted as A)
14 | 6.6 | 0.14 | CCCN(C)C(=O)[C@@H]1CC(=O)N(C)[C@@H](CC(F)F)C(=O)N[C@@H]([C@@H](C)CC)C(=O)N(C)CC(=O)N(C)[C@H]2C/C=C\CCN(C2=O)[C@@H](Cc2ccc(C(F)(F)F)cc2)C(=O)N(C)CC(=O)N[C@@H](CCc2ccc(C(F)(F)F)c(OC)c2)C(=O)N2C[C@H](OCC)C[C@H]2C(=O)NC2(CC(C)(C)C2)C(=O)N(C)[C@@H](C2CCCC2)C(=O)N1C [PP2010] | B (a compound having 3 or more and less than 10 is denoted as B) | A (a compound having 10 or more and less than 20 is denoted as A)
15 | 10.3 | 0.11 | CC[C@H](C)[C@@H]1NC(=O)[C@H](C2CCC2)N(C)C(=O)C[C@@H](C(=O)N(C)C)N(C)C(=O)[C@H](C2CCCC2)N(C)C(=O)C2(CC(C)(C)C2)NC(=O)[C@@H]2C[C@H](C)CN2C(=O)[C@H](CCc2ccc(C(F)(F)F)c(OC)c2)NC(=O)CN(C)C(=O)[C@H](Cc2ccc(C(F)(F)F)cc2)N2CC/C=C\C[C@@H](C2=O)N(C)C(=O)CN(C)C1=O [PP2011] | A (a compound having 10 or more and less than 20 is denoted as A) | A (a compound having 10 or more and less than 20 is denoted as A)
